Assay results from patent US12643887B2, “Heterocyclic derivatives with cardiomyocyte proliferation activity for treatment of heart diseases” (Tongji University, priority 2019, dated 2026).

Columns and labels:
human GSK3 beta = target: T1, human GSK3 beta (Homo sapiens, UniProt P49841); assay: GSK3 beta enzyme assay (ADP-Glo); assay type: biochemical; settings: ATP 25 μM, read-out: GSK3b IC50
T1 construct: Recombinant full-length human GSK3 beta (expressed in Sf9 insect cells with an N-terminal His tag); His (N); purchased SignalChem G09-10H; host or cells: Sf9 insect cells
T1 sequence (P49841 whole entry): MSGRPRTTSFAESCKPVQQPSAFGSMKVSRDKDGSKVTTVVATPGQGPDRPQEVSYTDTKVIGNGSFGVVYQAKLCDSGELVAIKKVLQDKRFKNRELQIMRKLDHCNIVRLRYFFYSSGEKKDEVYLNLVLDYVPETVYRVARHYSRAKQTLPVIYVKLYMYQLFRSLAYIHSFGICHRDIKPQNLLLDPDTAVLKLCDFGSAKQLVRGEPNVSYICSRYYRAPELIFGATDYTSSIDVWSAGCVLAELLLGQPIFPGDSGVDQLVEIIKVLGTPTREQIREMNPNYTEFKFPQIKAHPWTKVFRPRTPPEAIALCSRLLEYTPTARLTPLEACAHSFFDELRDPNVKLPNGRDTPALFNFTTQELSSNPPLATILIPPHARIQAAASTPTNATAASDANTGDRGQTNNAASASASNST
Method: 1. GSK3 Beta Enzyme Assay
The ability of compounds to inhibit human GSK3 beta kinase activities was determined using a commercially available ADP-Glo™ Kinase Assay kit (Promega, Cat #V9102) according to the manufacturer's protocol. The ADP-Glo™ Kinase Assay is a luminescent ADP detection assay that provides a universal, homogeneous, high-throughput screening method to measure kinase activity by quantifying the amount of ADP produced during a kinase reaction. The ADP-Glo™ Kinase Assay can be used to monitor the activity of virtually any ADP-generating enzymes (e.g., kinases or ATPases).
Recombinant full-length human GSK3 beta (expressed in Sf9 insect cells with an N-terminal His tag) was purchased from SignalChem (Cat #G09-10H). The GSK3 substrate peptide (sequence: […](pS)EDEEE) was purchased from SignalChem (Cat #G50-58). This assay, run in a 384-well plate format, is a generic method for measuring kinase activities using an ADP-Glo Kinase Assay Kit. The basic assay procedure involves two steps: (1) Enzymatic step: inhibitors are incubated with the kinase and then ATP (included in the ADP-Glo Kinase Assay Kit) and the GSK3 substrate peptide are added to start the enzymatic reaction; (2) Detection step: after the kinase reaction, first ADP-Glo™ Reagent is added to terminate the kinase reaction and deplete the remaining ATP. Second, the Kinase Detection Reagent is added to simultaneously convert ADP to ATP and allow the newly synthesized ATP to be measured using a luciferase/luciferin reaction. The light generated is measured using a luminometer.
(§1) Briefly, GSK3 beta (4 nM) in the enzymatic buffer solutions (40 mM Tris, pH 7.5, 20 mM MgCl2, 0.1 mg/ml BSA, 50 μM DTT) were mixed with various concentrations of inhibitors (dissolved in 100% DMSO). These solutions were incubated for 30 minutes at 25° C., and subsequently a mixture of substrate peptide and ATP was added with the final peptide and ATP concentrations at 13 μM and 25 μM, respectively. The final reaction mixture of enzyme-substrate-ATP-compound was incubated for 60 minutes at 25° C.
Afterwards ADP-Glo™ Reagent was added and the mixture was incubated at 25° C. for 60 minutes. Then Kinase Detection Reagent was added and the final mixture was incubated at 25° C. for 60 minutes. The luminescence signal of the final solution was measured on an Envision instrument (PerkinElmer). The percent (%) inhibition at each concentration of a compound is calculated relative to the luminescence signal in the Max and Min control wells contained within each assay plate. […] The concentrations and percent inhibition values for a test compound are plotted and the concentration of the compound required to achieve 50% inhibition (IC50) is determined with a four-parameter logistic dose response equation.

human HIPK2 = target: T2, human HIPK2 (Homo sapiens, UniProt Q9H2X6); assay: HIPK2 enzyme assay (ADP-Glo); assay type: biochemical; settings: ADP-Glo, ATP 5 μM; read-out: HIPK2 IC50
T2 construct: Recombinant human HIPK2 (1-640); GST (N); purchased SignalChem H04-11BG; host or cells: Sf9 insect cells
T2 sequence (Q9H2X6 1-640): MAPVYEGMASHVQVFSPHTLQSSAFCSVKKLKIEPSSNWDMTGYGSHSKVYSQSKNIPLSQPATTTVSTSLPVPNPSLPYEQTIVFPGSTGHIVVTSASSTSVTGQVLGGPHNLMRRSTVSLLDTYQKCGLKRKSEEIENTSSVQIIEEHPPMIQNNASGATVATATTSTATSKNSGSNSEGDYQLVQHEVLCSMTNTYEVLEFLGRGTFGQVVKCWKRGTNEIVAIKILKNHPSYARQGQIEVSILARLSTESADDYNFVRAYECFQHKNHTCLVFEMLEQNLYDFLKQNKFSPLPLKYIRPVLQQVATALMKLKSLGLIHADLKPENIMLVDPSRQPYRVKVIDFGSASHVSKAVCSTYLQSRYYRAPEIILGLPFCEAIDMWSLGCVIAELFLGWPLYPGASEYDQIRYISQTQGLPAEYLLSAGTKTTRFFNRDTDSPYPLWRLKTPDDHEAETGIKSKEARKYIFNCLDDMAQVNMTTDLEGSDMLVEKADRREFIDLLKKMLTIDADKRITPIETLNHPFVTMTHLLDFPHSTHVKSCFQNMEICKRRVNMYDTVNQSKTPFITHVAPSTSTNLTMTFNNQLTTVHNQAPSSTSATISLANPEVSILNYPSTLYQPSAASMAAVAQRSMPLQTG
Method: The ability of compounds to inhibit human HIPK2 kinase activities was determined using a commercially available ADP-Glo™ Kinase Assay kit (Promega, Cat #V9102) according to the manufacturer's protocol.
Recombinant human HIPK2 (1-640) (expressed in Sf9 insect cells with an N-terminal GST tag) was purchased from SignalChem (Cat #H04-11BG). Recombinant full length human MBP (expressed in E. Coli cells with an N-terminal GST tag) was purchased from SignalChem (Cat #M42-54G). This assay, run in a 384-well plate format, is a generic method for measuring kinase activities using an ADP-Glo Kinase Assay Kit. The basic assay procedure involves two steps: (1) Enzymatic step: inhibitors are incubated with the kinase and then ATP (included in the ADP-Glo Kinase Assay Kit) and the MBP protein are added to start the enzymatic reaction; (2) Detection step: after the kinase reaction, first ADP-Glo™ Reagent is added to terminate the kinase reaction and deplete the remaining ATP. Second, the Kinase Detection Reagent is added to simultaneously convert ADP to ATP and allow the newly synthesized ATP to be measured using a luciferase/luciferin reaction. The light generated is measured using a luminometer.
as §1, with “Briefly, HIPK2 (1” for “Briefly, GSK3 beta (4”, “at 0.05 mg/ml” for “at 13 μM”, “and 5” for “and 25”, “for 90” for “for 60”
Afterwards ADP-Glo™ Reagent was added and the mixture was incubated at 25° C. for 60 minutes. Then Kinase Detection Reagent was added, and the final mixture was incubated at 25° C. for 60 minutes. The luminescence signal of the final solution was measured on an Envision instrument (PerkinElmer). The percent (%) inhibition at each concentration of a compound is calculated relative to the luminescence signal in the Max and Min control wells contained within each assay plate. […] The concentrations and percent inhibition values for a test compound are plotted and the concentration of the compound required to achieve 50% inhibition (IC50) is determined with a four-parameter logistic dose response equation.

Structure (SMILES)	IC50 (human GSK3 beta) [µM]	IC50 (human HIPK2) [µM]
NC(=O)CCN(C1=N/C(=C\c2ccc3c(c2)OCO3)C(=O)N1)c1ccccc1 [Example 36, (Z)-3-((4-(benzo[d][1,3]dioxol-5-ylmethylene)-5-oxo-4,5-dihydro-1H-imidazol-2-yl)(phenyl)amino)propanamide]	> 10	> 10
O=C1NC(N(CCO)c2ccccc2)=N/C1=C\c1ccc2c(c1)OCO2 [Example 13, (Z)-5-(benzo[d][1,3]dioxol-5-ylmethylene)-2-((2-hydroxyethyl)(phenyl)amino)-3,5-dihydro-4H-imidazol-4-one]	1 to 10	1 to 10
Cn1ncc2ccc(/C=C3\N=C(Nc4ccccc4)NC3=O)cc21 [Example 79, 5-((1-methyl-1H-indazol-6-yl)methylene)-2-(phenylamino)-3,5-dihydro-4H-imidazol-4-one]	> 10	> 10
O=C1NC(NCc2ccccc2)=N/C1=C\c1ccc2ncsc2c1 [Example 31, (Z)-5-(benzo[d]thiazol-6-ylmethylene)-2-(benzylamino)-3,5-dihydro-4H-imidazol-4-one]	1 to 10	0.1 to 1
CN(CC1CC1)C1=N/C(=C\c2ccc3c(c2)OCCO3)C(=O)N1 [Example 19, (Z)-2-((cyclopropylmethyl)(methyl)amino)-5-((2,3-dihydrobenzo[b][1,4]dioxin-6-yl)methylene)-3,5-di hydro-4H-imidazol-4-one]	> 10	> 10
CN(C1=N/C(=C\c2ccc3c(c2)OCO3)C(=O)N1)c1ccccc1 [Example 1, (Z)-5-(benzo[d][1,3]dioxol-5-ylmethylene)-2-(methyl(phenyl)amino)-3,5-dihydro-4H-imidazol-4-one]		> 10
O=C1/C(=C/c2ccc3c(c2)OCO3)N=C(N(Cc2ccccc2)c2ccccc2)N1Cc1ccccc1 [Example 2, (Z)-5-(benzo[d][1,3]dioxol-5-ylmethylene)-3-benzyl-2-(benzyl(phenyl)amino)-3,5-dihydro-4H-imidazol-4-one]		> 10
CN1C(=O)/C(=C/c2ccc3c(c2)OCO3)N=C1N(C)c1ccccc1 [Example 3, (Z)-5-(benzo[d][1,3]dioxol-5-ylmethylene)-3-methyl-2-(methyl(phenyl)amino)-3,5-dihydro-4H-imidazol-4-one]		> 10

Further lines, results first:

IC50 (human GSK3 beta) [µM]	IC50 (human HIPK2) [µM]	Structure (SMILES)
0.1 to 1	< 0.1	Cn1cnc2ccc(/C=C3\N=C(Nc4ccc5ncsc5c4)NC3=O)cc21 [Example 75, (Z)-2-(benzo[d]thiazol-6-ylamino)-5-((1-methyl-1H-benzo[d]imidazol-6-yl)methylene)-3,5-dihydro-4H-imidazol-4-one]
1 to 10	1 to 10	O=C1NC(NCC2CC2)=N/C1=C\c1ccc2ncsc2c1 [Example 34, (Z)-5-(benzo[d]thiazol-6-ylmethylene)-2-((cyclopropylmethyl)amino)-3,5-dihydro-4H-imidazol-4-one]
> 10	> 10	CN(C1=N/C(=C\c2ccc3ncsc3c2)C(=O)N1)c1ccc([N+](=O)[O-])cc1 [Example 43, (Z)-5-(benzo[d]thiazol-6-ylmethylene)-2-(methyl(4-nitrophenyl)amino)-3,5-dihydro-4H-imidazol-4-one]
> 10	> 10	Cn1ncc2cc(/C=C3\N=C(Nc4ccc5ncsc5c4)NC3=O)ccc21 [Example 78, (Z)-2-(benzo[d]thiazol-6-ylamino)-5-((1-methyl-1H-indazol-5-yl)methylene)-3,5-dihydro-4H-imidazol-4-one]
> 10	> 10	O=C1NC(Nc2ccc3ncsc3c2)=N/C1=C\c1ccc2occc2c1 [Example 59, (Z)-2-(benzo[d]thiazol-6-ylamino)-5-(benzofuran-5-ylmethylene)-3,5-dihydro-4H-imidazol-4-one]
> 10	> 10	O=C1NC(Nc2ccc3ncsc3c2)=N/C1=C\c1ccc2[nH]ccc2c1 [Example 58, (Z)-5-((1H-indol-5-yl)methylene)-2-(benzo[d]thiazol-6-ylamino)-3,5-dihydro-4H-imidazol-4-one]
